For the assay, the system named is pS6K1 (p-p70 S6 Kinase (Thr389)) in MCF-7 cells. The assay can be described thus: AlphaLISA Ultra pS6K1 Assay. In kind it is cell-based. The note with it: Homo sapiens, 1.5 h; MCF7 cells, 90 min. The procedure: AlphaLISA Ultra pS6K1 Assay
1. Seed MCF-7 cells in Corning 3701 plate and incubate for 20˜24 hour. 12,000˜16,000 cells will be seeded in 36 μL medium per well.
2. Change the culture medium with fresh medium and incubate for another 2 hours.
3. Add 12 μL (4×) compounds into the cell plate by HAMILTON. Final DMSO concentration is 0.5%. Incubate for 90 minutes.
4. Aspirate […] by HAMILTON, 10 μL rest per well.
5. Add 10 μL 2× lysis buffer using HAMILTON; total volume in wells is 20 μL. Allow cells to shake for 30 min. Cover plate by plastic foil and store plate at −80° C. up to analysis.
6. Thaw cell lysate at RT and transfer 10 μL lysate to assay plate (Optiplate-384).
7. Add 5 μL acceptor beads into assay plate and incubation for 2 hours
8. Add 5 μL donor beads and incubation for 2 hours
9. Count the plate by EnSpire Multimode Plate Reader

On to `CO[C@@H]1C[C@H](C[C@@H](C)[C@@H]2CC(=O)[C@H](C)/C=C(\C)[C@@H](O)[C@@H](OC)C(=O)[C@H](C)C[C@H](C)/C=C/C=C/C=C(\C)C(OC[C@@H](O)[C@@H](O)[C@H](O)[C@H](O)CO)C[C@@H]3CC[C@@H](C)[C@@](O)(O3)C(=O)C(=O)N3CCCC[C@H]3C(=O)O2)CC[C@H]1O` (stereo partly shown) [Compound I-63], for which the half-maximal inhibitory concentration (IC50) is no less than 100 nM. Compound `CO[C@@H]1C[C@H](C[C@@H](C)[C@@H]2CC(=O)[C@H](C)/C=C(\C)[C@@H](O)[C@@H](OC)C(=O)[C@H](C)C[C@H](C)/C=C/C=C/C=C(\C)[C@@H](OCCOCCOCCO)C[C@@H]3CC[C@@H](C)[C@@](O)(O3)C(=O)C(=O)N3CCCC[C@H]3C(=O)O2)CC[C@H]1OCCOCCOCCO` [Compound I-73] registered a half-maximal inhibitory concentration (IC50) of 1 to 10 nM. With `CO[C@@H]1C[C@H](C[C@@H](C)[C@@H]2CC(=O)[C@H](C)/C=C(\C)[C@@H](O)[C@@H](OC)C(=O)[C@H](C)C[C@H](C)/C=C/C=C/C=C(\C)[C@H](OC[C@@H](O)[C@@H](O)[C@H](O)[C@H](O)CO)C[C@@H]3CC[C@@H](C)[C@@](O)(O3)C(=O)C(=O)N3CCCC[C@H]3C(=O)O2)CC[C@H]1O` [Compound I-57], the IC50 is less than 0.1 nM.

In turn, `CO[C@@H]1C[C@H](C[C@@H](C)[C@@H]2CC(=O)[C@H](C)/C=C(\C)[C@@H](O)[C@@H](OC)C(=O)[C@H](C)C[C@H](C)/C=C/C=C/C=C(\C)[C@@H](OCCOCCO)C[C@@H]3CC[C@@H](C)[C@@](O)(O3)C(=O)C(=O)N3CCCC[C@H]3C(=O)O2)CC[C@H]1OCCOCCO` [Compound I-67] came in with a half-inhibitory concentration (IC50) of 0.1 to 1 nM. The value for `CO[C@@H]1C[C@H](C[C@@H](C)[C@@H]2CC(=O)[C@H](C)/C=C(\C)[C@@H](O)[C@@H](OC)C(=O)[C@H](C)C[C@H](C)/C=C/C=C/C=C(\C)C(OCCOCCOC(F)(F)C(F)(F)F)C[C@@H]3CC[C@@H](C)[C@@](O)(O3)C(=O)C(=O)N3CCCC[C@H]3C(=O)O2)CC[C@H]1OCCO` (stereo partly shown) [Compound I-87] was less than 0.1 nM; that for `CO[C@@H]1C[C@H](C[C@@H](C)[C@@H]2CC(=O)[C@H](C)/C=C(\C)[C@@H](O)[C@@H](OC)C(=O)[C@H](C)C[C@H](C)/C=C/C=C/C=C(\C)[C@H](OCCOCCO)C[C@@H]3CC[C@@H](C)[C@@](O)(O3)C(=O)C(=O)N3CCCC[C@H]3C(=O)O2)CC[C@H]1OCCOCCO` [Compound I-66] was 1 to 10 nM. Then `CNC(=O)OCCO[C@H]1C[C@@H]2CC[C@@H](C)[C@@](O)(O2)C(=O)C(=O)N2CCCC[C@H]2C(=O)OC([C@H](C)CC2CC[C@@H](OCCO)[C@H](OC)C2)CC(=O)[C@H](C)/C=C(\C)[C@@H](O)[C@@H](OC)C(=O)[C@H](C)C[C@H](C)/C=C/C=C/C=C/1C` (stereo partly shown) [Compound I-75], with less than 0.1 nM.

In the case of `CO[C@@H]1C[C@H](C[C@@H](C)[C@@H]2CC(=O)[C@H](C)/C=C(\C)[C@@H](O)[C@@H](OC)C(=O)[C@H](C)C[C@H](C)/C=C/C=C/C=C(\C)C(OCCOCCOC(F)(F)F)C[C@@H]3CC[C@@H](C)[C@@](O)(O3)C(=O)C(=O)N3CCCC[C@H]3C(=O)O2)CC[C@H]1OCCO` (stereo partly shown) [Compound I-88], the concentration for half-maximal inhibition (IC50) was less than 0.1 nM.

Take `CO[C@@H]1C[C@H](C[C@@H](C)[C@@H]2CC(=O)[C@H](C)/C=C(\C)[C@@H](O)[C@@H](OC)C(=O)[C@H](C)C[C@H](C)/C=C/C=C/C=C(\C)C(OCCOCC(COCCO)COCCO)C[C@@H]3CC[C@@H](C)[C@@](O)(O3)C(=O)C(=O)N3CCCC[C@H]3C(=O)O2)CC[C@H]1O` (stereo partly shown) [Compound I-100]: the half-inhibitory concentration (IC50) fell in the range of 1 to 10 nM.

Consider `CO[C@@H]1C[C@H](C[C@@H](C)[C@@H]2CC(=O)[C@H](C)/C=C(\C)[C@@H](O)[C@@H](OC)C(=O)[C@H](C)C[C@H](C)/C=C/C=C/C=C(\C)C(OCCOCCOCCO)C[C@@H]3CC[C@@H](C)[C@@](O)(O3)C(=O)C(=O)N3CCCC[C@H]3C(=O)O2)CC[C@H]1OCCOCCOCCO` (stereo partly shown) [Compound I-78], for which the IC50 lay in the range of 1 to 10 nM. On to `CO[C@@H]1C[C@H](C[C@@H](C)[C@@H]2CC(=O)[C@H](C)/C=C(\C)[C@@H](O)[C@@H](OC)C(=O)[C@H](C)C[C@H](C)/C=C/C=C/C=C(\C)[C@@H](OCCOCC(COCCO)COCCO)C[C@@H]3CC[C@@H](C)[C@@](O)(O3)C(=O)C(=O)N3CCCC[C@H]3C(=O)O2)CC[C@H]1O` [Compound I-65], for which the IC50 lay in the range of 0.1 to 1 nM. As for `CO[C@@H]1C[C@H](C[C@@H](C)[C@@H]2CC(=O)[C@H](C)/C=C(\C)[C@@H](O)[C@@H](OC)C(=O)[C@H](C)C[C@H](C)/C=C/C=C/C=C(\C)[C@H](OCCOCCOC(F)(F)C(F)(F)F)C[C@@H]3CC[C@@H](C)[C@@](O)(O3)C(=O)C(=O)N3CCCC[C@H]3C(=O)O2)CC[C@H]1OCCO` [Compound I-79], the IC50 was in the range of 1 to 10 nM. As for `CO[C@@H]1C[C@H](C[C@@H](C)[C@@H]2CC(=O)[C@H](C)/C=C(\C)[C@@H](O)[C@@H](OC)C(=O)[C@H](C)C[C@H](C)/C=C/C=C/C=C(\C)[C@H](OCCOCCOC(F)(F)F)C[C@@H]3CC[C@@H](C)[C@@](O)(O3)C(=O)C(=O)N3CCCC[C@H]3C(=O)O2)CC[C@H]1OCCO` [Compound I-82], the IC50 was in the range of 0.1 to 1 nM. The value for `CO[C@@H]1C[C@H](C[C@@H](C)[C@@H]2CC(=O)[C@H](C)/C=C(\C)[C@@H](O)[C@@H](OC)C(=O)[C@H](C)C[C@H](C)/C=C/C=C/C=C(\C)C(OCCOCCOCCOCCOCCOCCOCCOCCOCCOCCO)C[C@@H]3CC[C@@H](C)[C@@](O)(O3)C(=O)C(=O)N3CCCC[C@H]3C(=O)O2)CC[C@H]1O` (stereo partly shown) [Compound I-98] was 1 to 10 nM. The value for `CNC(=O)OCCOC1C[C@@H]2CC[C@@H](C)[C@@](O)(O2)C(=O)C(=O)N2CCCC[C@H]2C(=O)O[C@H]([C@H](C)C[C@@H]2CC[C@@H](OCCO)[C@H](OC)C2)CC(=O)[C@H](C)/C=C(\C)[C@@H](O)[C@@H](OC)C(=O)[C@H](C)C[C@H](C)/C=C/C=C/C=C/1C` (stereo partly shown) [Compound I-81] was 1 to 10 nM. `CO[C@@H]1C[C@H](C[C@@H](C)[C@@H]2CC(=O)[C@H](C)/C=C(\C)[C@@H](O)[C@@H](OC)C(=O)[C@H](C)C[C@H](C)/C=C/C=C/C=C(\C)C(OCCOCCOCC(F)(F)F)C[C@@H]3CC[C@@H](C)[C@@](O)(O3)C(=O)C(=O)N3CCCC[C@H]3C(=O)O2)CC[C@H]1O` (stereo partly shown) [Compound I-91] came in with a half-inhibitory concentration (IC50) of less than 0.1 nM. Then `CO[C@@H]1C[C@H](C[C@@H](C)[C@@H]2CC(=O)[C@H](C)/C=C(\C)[C@@H](O)[C@@H](OC)C(=O)[C@H](C)C[C@H](C)/C=C/C=C/C=C(\C)[C@@H](OC[C@@H](O)[C@@H](O)[C@H](O)[C@H](O)CO)C[C@@H]3CC[C@@H](C)[C@@](O)(O3)C(=O)C(=O)N3CCCC[C@H]3C(=O)O2)CC[C@H]1O` [Compound I-58], with 0.1 to 1 nM.

For `CO[C@@H]1C[C@H](C[C@@H](C)[C@@H]2CC(=O)[C@H](C)/C=C(\C)[C@@H](O)[C@@H](OC)C(=O)[C@H](C)C[C@H](C)/C=C/C=C/C=C(\C)[C@H](OCCOCC(COCCO)COCCO)C[C@@H]3CC[C@@H](C)[C@@](O)(O3)C(=O)C(=O)N3CCCC[C@H]3C(=O)O2)CC[C@H]1O` [Compound I-64], the IC50 was 1 to 10 nM. Regarding `CNC(=O)OCCO[C@@H]1C[C@@H]2CC[C@@H](C)[C@@](O)(O2)C(=O)C(=O)N2CCCC[C@H]2C(=O)O[C@H]([C@H](C)C[C@@H]2CC[C@@H](OCCO)[C@H](OC)C2)CC(=O)[C@H](C)/C=C(\C)[C@@H](O)[C@@H](OC)C(=O)[C@H](C)C[C@H](C)/C=C/C=C/C=C/1C` [Compound I-74], the IC50 lay within 0.1 to 1 nM. Then `COCCOCCOC1C[C@@H]2CC[C@@H](C)[C@@](O)(O2)C(=O)C(=O)N2CCCC[C@H]2C(=O)OC([C@H](C)CC2CC[C@@H](OCCOC)[C@H](OC)C2)CC(=O)[C@H](C)/C=C(\C)[C@@H](O)[C@@H](OC)C(=O)[C@H](C)C[C@H](C)/C=C/C=C/C=C/1C` (stereo partly shown) [Compound I-92], with 0.1 to 1 nM. The value for `CO[C@@H]1C[C@H](C[C@@H](C)[C@@H]2CC(=O)[C@H](C)/C=C(\C)[C@@H](O)[C@@H](OC)C(=O)[C@H](C)C[C@H](C)/C=C/C=C/C=C(\C)C(OCCOCCOCC(F)(F)F)C[C@@H]3CC[C@@H](C)[C@@](O)(O3)C(=O)C(=O)N3CCCC[C@H]3C(=O)O2)CC[C@H]1OCCO` (stereo partly shown) [Compound I-86] was less than 0.1 nM; that for `CO[C@@H]1C[C@H](C[C@@H](C)[C@@H]2CC(=O)[C@H](C)/C=C(\C)[C@@H](O)[C@@H](OC)C(=O)[C@H](C)C[C@H](C)/C=C/C=C/C=C(\C)C(OCCOCCO)C[C@@H]3CC[C@@H](C)[C@@](O)(O3)C(=O)C(=O)N3CCCC[C@H]3C(=O)O2)CC[C@H]1OCCOCCO` (stereo partly shown) [Compound I-76] was 1 to 10 nM; that for `CCCCCCOC1C[C@@H]2CC[C@@H](C)[C@@](O)(O2)C(=O)C(=O)N2CCCC[C@H]2C(=O)O[C@H]([C@H](C)C[C@@H]2CC[C@@H](O)[C@H](OC)C2)CC(=O)[C@H](C)/C=C(\C)[C@@H](O)[C@@H](OC)C(=O)[C@H](C)C[C@H](C)/C=C/C=C/C=C/1C` (stereo partly shown) [Compound I-103] was 0.1 to 1 nM.

Consider `CO[C@@H]1C[C@H](C[C@@H](C)[C@@H]2CC(=O)[C@H](C)/C=C(\C)[C@@H](O)[C@@H](OC)C(=O)[C@H](C)C[C@H](C)/C=C/C=C/C=C(\C)[C@@H](OCCOCCOC(F)(F)C(F)(F)F)C[C@@H]3CC[C@@H](C)[C@@](O)(O3)C(=O)C(=O)N3CCCC[C@H]3C(=O)O2)CC[C@H]1OCCO` [Compound I-80], for which the IC50 lay in the range of 0.1 to 1 nM. As to `CO[C@@H]1C[C@H](C[C@@H](C)[C@@H]2CC(=O)[C@H](C)/C=C(\C)[C@@H](O)[C@@H](OC)C(=O)[C@H](C)C[C@H](C)/C=C/C=C/C=C(\C)[C@H](OCCOCCOCCO)C[C@@H]3CC[C@@H](C)[C@@](O)(O3)C(=O)C(=O)N3CCCC[C@H]3C(=O)O2)CC[C@H]1OCCOCCOCCO` [Compound I-72], the IC50 fell in the range of 1 to 10 nM.

The values are drawn from patent US11944605B2, “Rapamycin analogs and uses thereof” (Janssen Pharmaceutica NV, priority 2018, dated 2024).
